In US11304957B2, “Substituted quinazolines for inhibiting kinase activity” (NeuPharma, Inc., priority 2013, dated 2022):

How the values were obtained:
Assay type in all cases: biochemical
FGFR1 = FGFR1 (Homo sapiens (Human), UniProt P11362); assay: Z'-LYTE kinase inhibition assay, FGFR1; conditions: read-out: % inhibition FGFR1; heading: % inhibition FGFR1; compound at 0.041 μM
Procedure: (§1) Inhibitory activities of compounds against BTK, EGFR and EGFR mutants (EGFR L858R, EGFR T790M, EGFR L858R/T790M), FGFR1, FGFR2, JAK2, JAK3 and KDR were measured by Invitrogen using Z′-LYTE® Method as briefly described in the following.
(§2) Test Compounds are screened in 1% DMSO (final) in the well. For 10 point titrations, 3-fold serial dilutions are conducted from the starting concentration. All ATP Solutions are diluted to a 4× working concentration in Kinase Buffer (50 mM HEPES pH 7.5, 0.01% BRIJ-35, 10 mM MgCl2, 1 mM EGTA). Peptide/Kinase Mixtures are diluted to a 2× working concentration in the appropriate Kinase Buffers as described below.
(v) Peptide/Kinase Mixtures for Measurement of FGFR1:
The 2×FGFR1/Tyr 04 mixture is prepared in 50 mM HEPES pH 7.5, 0.01% BRIJ-35, 10 mM MgCl2, 4 mM MnCl2, 1 mM EGTA, 2 mM DTT. The final 10 μL Kinase Reaction consists of 0.41-3.5 ng FGFR1 and 2 μM Tyr 04 in 50 mM HEPES pH 7.5, 0.01% BRIJ-35, 10 mM MgCl2, 2 mM MnCl2, 1 mM EGTA, 1 mM DTT. After the 1 hour Kinase Reaction incubation, 5 μL of a 1:64 dilution of Development Reagent B is added.
(§3) Reaction starts by 30-second shaking of mixture consisting of 2.5 μL 4× test compound, 5 μL 2× kinase reaction mixture and 2.5 μL 4×ATP Solution on Bar-coded Corning, low volume NBS, black 384-well plate (Corning Cat. #3676). Then the mixture is incubated for 60-minute at room temperature for the kinase reaction, followed by addition of 5 μL of a 1:1024 dilution of development reagent A and 30-second plate shake. The mixture is then incubated for another 60-minute at room temperature for development reaction. Finally fluorescence is read by plate reader.
(§4) To determine IC50 of a compound against EGFR, EGFR mutant and other kinases, a series of concentrations of the compound were tested for the inhibition. […] The scale utilized in Table 4 is as follows: +++ less than 100 nM, ++ 100-500 nM and + greater than 500 nM.

BTK = BTK (Homo sapiens (Human), UniProt Q06187); assay: Z'-LYTE kinase inhibition assay, BTK; conditions: read-out: % inhibition BTK; heading: % inhibition BTK; compound at 0.041 μM
Procedure: as §1, §2
(v) Peptide/Kinase Mixtures for Measurement of BTK:
The 2×BTK/Tyr 01 mixture is prepared in 50 mM HEPES pH 7.5, 0.01% BRIJ-35, 10 mM MgCl2, 1 mM EGTA.
The mixture is then incubated for another 60-minute at room temperature for development reaction. Finally fluorescence is read by plate reader.
as §4

JAK2 = JAK2 (Homo sapiens (Human), UniProt O60674); assay: Z'-LYTE kinase inhibition assay, JAK2; conditions: read-out: % inhibition JAK2; heading: % inhibition JAK2; compound at 0.041 μM
Procedure: as §1, §2
(v) Peptide/Kinase Mixtures for Measurement of JAK2:
The 2×JAK2/Tyr 06 mixture is prepared in 50 mM HEPES pH 7.5, 0.01% BRIJ-35, 10 mM MgCl2, 1 mM EGTA. The final 10 μL Kinase Reaction consists of 0.06-0.81 ng JAK2 and 2 μM Tyr 06 in 50 mM HEPES pH 7.5, 0.01% BRIJ-35, 10 mM MgCl2, 1 mM EGTA. After the 1 hour Kinase Reaction incubation, 5 μL of a 1:64 dilution of Development Reagent A is added.
as §3

EGFR (ErbB1) T790M L858R = EGFR (ErbB1) T790M L858R (Homo sapiens (Human), UniProt P00533, L858R/T790M); assay: Z'-LYTE kinase inhibition assay, EGFR L858R/T790M; conditions: for inhibition at 0.0137 µM: read-out: % inhibition EGFR L858R/T790M (Compound at 0.0137 μM)
Procedure: Inhibitory activities of compounds against BTK, EGFR and EGFR mutants (EGFR L858R, EGFR T790M, EGFR L858R/T790M), FGFR1, FGFR2, JAK2, JAK3 and KDR were measured by Invitrogen using Z'-LYTE® Method as briefly described in the following. Test Compounds are screened in 1% DMSO (final) in the well. For 10 point titrations, 3-fold serial dilutions are conducted from the starting concentration. All ATP Solutions are diluted to a 4× working concentration in Kinase Buffer (50 mM HEPES pH 7.5, 0.01% BRIJ-35, 10 mM MgCl2, 1 mM EGTA). Peptide/Kinase Mixtures are diluted to a 2× working concentration in the appropriate Kinase Buffers as described below. (iv) Peptide/Kinase Mixtures for Measurement of EGFR (ErbB1) T790M L858R: The 2×EGFR (ErbB1) […] mixture is prepared in 50 mM HEPES pH 6.5, 0.01% BRIJ-35, 10 mM MgCl2, 1 mM EGTA, 0.02% NaN3. […] After the 1 hour Kinase Reaction incubation, 5 μL of a 1:64 dilution of Development Reagent B is added. Reaction starts by 30-second shaking of mixture consisting of 2.5 μL 4× test compound, 5 μL 2× kinase reaction mixture and 2.5 μL 4×ATP Solution on Bar-coded Corning, low volume NBS, black 384-well plate (Corning Cat. #3676). Then the mixture is incubated for 60-minute at room temperature for the kinase reaction, followed by addition of 5 μL of a 1:1024 dilution of development reagent A and 30-second plate shake. The mixture is then incubated for another 60-minute at room temperature for development reaction. Finally fluorescence is read by plate reader. To determine IC50 of a compound against EGFR, EGFR mutant and other kinases, a series of concentrations of the compound were tested for the inhibition.

BTK, sequence (Q06187 whole entry): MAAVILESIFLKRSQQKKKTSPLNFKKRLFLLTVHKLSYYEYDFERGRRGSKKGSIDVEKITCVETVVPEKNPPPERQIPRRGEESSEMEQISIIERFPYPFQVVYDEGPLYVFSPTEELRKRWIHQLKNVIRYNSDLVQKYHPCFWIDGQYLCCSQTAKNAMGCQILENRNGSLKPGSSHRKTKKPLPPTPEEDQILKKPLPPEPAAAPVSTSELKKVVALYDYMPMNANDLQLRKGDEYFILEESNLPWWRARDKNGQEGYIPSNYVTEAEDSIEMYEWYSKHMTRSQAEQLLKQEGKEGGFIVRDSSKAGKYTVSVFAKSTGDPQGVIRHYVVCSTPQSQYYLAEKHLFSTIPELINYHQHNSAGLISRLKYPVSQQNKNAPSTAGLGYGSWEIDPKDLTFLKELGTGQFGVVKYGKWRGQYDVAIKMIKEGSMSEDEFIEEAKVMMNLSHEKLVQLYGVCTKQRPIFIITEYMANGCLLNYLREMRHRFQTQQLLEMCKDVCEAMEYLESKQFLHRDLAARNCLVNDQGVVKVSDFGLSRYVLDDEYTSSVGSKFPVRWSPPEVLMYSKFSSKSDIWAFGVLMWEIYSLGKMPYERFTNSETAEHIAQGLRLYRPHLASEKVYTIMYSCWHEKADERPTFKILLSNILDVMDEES
FGFR1, sequence (P11362 22-822): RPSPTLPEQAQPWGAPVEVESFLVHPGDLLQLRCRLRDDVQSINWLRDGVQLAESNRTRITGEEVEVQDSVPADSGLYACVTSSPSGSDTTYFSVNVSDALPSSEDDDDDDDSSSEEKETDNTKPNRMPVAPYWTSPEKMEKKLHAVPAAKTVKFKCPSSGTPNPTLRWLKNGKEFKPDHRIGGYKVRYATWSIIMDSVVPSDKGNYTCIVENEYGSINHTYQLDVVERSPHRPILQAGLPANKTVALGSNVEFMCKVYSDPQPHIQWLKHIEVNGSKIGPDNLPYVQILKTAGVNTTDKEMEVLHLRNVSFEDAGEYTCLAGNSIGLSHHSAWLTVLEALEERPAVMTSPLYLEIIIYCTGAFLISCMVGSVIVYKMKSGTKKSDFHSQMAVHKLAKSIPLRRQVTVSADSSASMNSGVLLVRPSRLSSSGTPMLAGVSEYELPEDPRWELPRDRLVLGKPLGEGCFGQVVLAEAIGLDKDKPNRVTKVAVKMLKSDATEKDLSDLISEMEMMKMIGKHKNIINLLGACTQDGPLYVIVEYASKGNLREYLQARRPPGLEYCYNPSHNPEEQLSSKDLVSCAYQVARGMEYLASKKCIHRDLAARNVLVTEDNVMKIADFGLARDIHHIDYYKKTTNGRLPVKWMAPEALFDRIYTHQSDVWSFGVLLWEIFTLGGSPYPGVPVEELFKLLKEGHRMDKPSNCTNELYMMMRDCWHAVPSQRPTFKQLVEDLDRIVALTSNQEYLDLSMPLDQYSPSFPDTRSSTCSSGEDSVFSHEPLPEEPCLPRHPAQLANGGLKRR
JAK2, sequence (O60674 whole entry): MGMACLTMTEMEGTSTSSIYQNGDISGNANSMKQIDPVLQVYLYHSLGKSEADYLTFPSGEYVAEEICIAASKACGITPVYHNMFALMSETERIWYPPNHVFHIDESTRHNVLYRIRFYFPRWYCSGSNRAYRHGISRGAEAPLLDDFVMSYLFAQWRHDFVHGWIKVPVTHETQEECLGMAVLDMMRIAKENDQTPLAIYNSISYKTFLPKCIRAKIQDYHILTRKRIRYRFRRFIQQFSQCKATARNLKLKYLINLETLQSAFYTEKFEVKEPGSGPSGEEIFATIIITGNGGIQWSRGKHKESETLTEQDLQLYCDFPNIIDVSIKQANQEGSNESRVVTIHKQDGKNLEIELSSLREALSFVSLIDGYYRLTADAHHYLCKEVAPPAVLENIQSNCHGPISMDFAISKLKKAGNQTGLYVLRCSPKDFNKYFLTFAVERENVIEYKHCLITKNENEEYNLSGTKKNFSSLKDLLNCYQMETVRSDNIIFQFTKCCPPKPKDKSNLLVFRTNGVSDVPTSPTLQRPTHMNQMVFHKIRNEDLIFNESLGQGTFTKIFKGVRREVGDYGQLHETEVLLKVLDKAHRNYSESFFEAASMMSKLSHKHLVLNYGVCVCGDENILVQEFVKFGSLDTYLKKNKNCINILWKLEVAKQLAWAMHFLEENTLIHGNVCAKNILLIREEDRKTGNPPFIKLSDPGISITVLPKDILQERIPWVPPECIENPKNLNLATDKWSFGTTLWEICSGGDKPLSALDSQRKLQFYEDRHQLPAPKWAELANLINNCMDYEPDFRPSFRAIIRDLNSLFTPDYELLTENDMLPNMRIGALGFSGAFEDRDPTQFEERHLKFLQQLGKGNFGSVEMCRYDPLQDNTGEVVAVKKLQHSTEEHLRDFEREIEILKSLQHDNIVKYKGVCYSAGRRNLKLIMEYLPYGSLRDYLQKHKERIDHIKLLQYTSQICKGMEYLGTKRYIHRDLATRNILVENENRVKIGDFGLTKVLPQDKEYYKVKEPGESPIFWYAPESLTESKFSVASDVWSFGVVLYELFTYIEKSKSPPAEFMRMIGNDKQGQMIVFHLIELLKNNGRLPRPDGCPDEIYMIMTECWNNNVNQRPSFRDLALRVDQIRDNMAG
EGFR (ErbB1) T790M L858R, sequence (P00533 25-1210 T790M/L858R): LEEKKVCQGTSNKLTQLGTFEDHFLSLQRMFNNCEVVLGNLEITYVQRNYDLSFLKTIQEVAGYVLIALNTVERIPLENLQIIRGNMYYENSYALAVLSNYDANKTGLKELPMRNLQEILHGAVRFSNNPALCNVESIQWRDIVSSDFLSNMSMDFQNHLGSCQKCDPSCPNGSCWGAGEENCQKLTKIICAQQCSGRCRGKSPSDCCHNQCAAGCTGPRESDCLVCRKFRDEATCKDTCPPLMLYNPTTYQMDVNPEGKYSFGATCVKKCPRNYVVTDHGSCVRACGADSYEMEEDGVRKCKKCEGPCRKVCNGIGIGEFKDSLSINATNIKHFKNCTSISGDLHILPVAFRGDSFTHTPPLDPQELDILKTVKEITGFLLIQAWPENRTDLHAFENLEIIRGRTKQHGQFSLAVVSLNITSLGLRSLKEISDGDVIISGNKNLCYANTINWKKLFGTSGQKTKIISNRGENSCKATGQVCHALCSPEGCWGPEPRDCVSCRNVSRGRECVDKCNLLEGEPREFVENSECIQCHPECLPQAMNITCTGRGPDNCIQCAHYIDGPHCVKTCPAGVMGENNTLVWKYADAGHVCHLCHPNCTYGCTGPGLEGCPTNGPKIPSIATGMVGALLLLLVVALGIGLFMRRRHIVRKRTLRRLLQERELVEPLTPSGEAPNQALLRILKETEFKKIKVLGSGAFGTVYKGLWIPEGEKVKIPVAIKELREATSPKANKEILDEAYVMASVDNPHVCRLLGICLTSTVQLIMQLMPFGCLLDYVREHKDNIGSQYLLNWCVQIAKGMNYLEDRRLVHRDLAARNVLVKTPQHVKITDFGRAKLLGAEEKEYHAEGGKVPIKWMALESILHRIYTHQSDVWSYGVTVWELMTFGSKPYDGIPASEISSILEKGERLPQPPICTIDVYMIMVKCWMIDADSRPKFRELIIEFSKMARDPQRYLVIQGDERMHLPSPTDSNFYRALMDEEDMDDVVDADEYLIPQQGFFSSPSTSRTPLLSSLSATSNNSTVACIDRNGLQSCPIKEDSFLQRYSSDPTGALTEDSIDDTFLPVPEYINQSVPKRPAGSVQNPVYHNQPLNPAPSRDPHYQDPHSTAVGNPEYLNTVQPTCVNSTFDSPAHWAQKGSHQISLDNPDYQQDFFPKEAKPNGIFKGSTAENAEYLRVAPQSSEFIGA

Row | inhibition at 0.041 µM (FGFR1) | inhibition at 0.041 µM (BTK) | inhibition at 0.041 µM (JAK2) | SMILES | inhibition at 0.0137 µM (EGFR (ErbB1) T790M L858R) | inhibition at 1 µM (EGFR (ErbB1) T790M L858R; read-out: % inhibition EGFR L858R/T790M (Compound at 1 μM))
1 | < 50% | – | – | C=CC(=O)Nc1cccc(-c2cccc3cnc(Nc4ccc(N5CCN(C(C)=O)CC5)cc4)nc23)c1Cl [Example C051, N-(3-(2-((4-(4-acetylpiperazin-1-yl)phenyl)amino)quinazolin-8-yl)-2-chlorophenyl)acrylamide] | – | –
2 | > 50% | – | – | C=CC(=O)Nc1cccc(-c2cccc3cnc(Nc4ccc(N5CCN(C)CC5)c(OC)c4)nc23)c1 [Example C075, N-(3-(2-((3-methoxy-4-(4-methylpiperazin-1-yl)phenyl)amino)quinazolin-8-yl)phenyl)acrylamide] | – | –
3 | < 50% | – | – | C=CC(=O)Nc1cccc(-c2cccc3cnc(Nc4ccc(N5CCN(C)CC5)cc4F)nc23)c1 [Example C044, N-(3-(2-((2-fluoro-4-(4-methylpiperazin-1-yl)phenyl)amino)quinazolin-8-yl)phenyl)acrylamide] | – | –
4 | – | > 50% | > 50% | CC(=O)Nc1cccc(-c2cccc3cnc(Nc4ccc(N5CCN(C)CC5)cc4)nc23)c1 [Example C022, N-(3-(2-((4-(4-methylpiperazin-1-yl)phenyl)amino)quinazolin-8-yl)phenyl)acetamide] | – | –
5 | > 50% | > 50% | > 50% | C=CC(=O)Nc1cccc(-c2cccc3cnc(Nc4ccc(N5CCOCC5)cc4)nc23)c1 [Example C001, N-(3-(2-((4-morpholinophenyl)amino)quinazolin-8-yl)phenyl)acrylamide] | – | –
6 | > 50% | > 50% | > 50% | C=CC(=O)Nc1cccc(-c2cccc3cnc(Nc4ccc(N5CCN(CCF)CC5)cc4)nc23)c1 [Example C053, N-(3-(2-((4-(4-(2-fluoroethyl)piperazin-1-yl)phenyl)amino)quinazolin-8-yl)phenyl)acrylamide] | – | –
7 | – | < 50% | < 50% | C=CC(=O)Nc1cccc(-c2cccc3cnc(Nc4ccc(N5CCN(C)CC5)nc4OC)nc23)c1 [Example C055, N-(3-(2-((2-methoxy-6-(4-methylpiperazin-1-yl)pyridin-3-yl)amino)quinazolin-8-yl)phenyl)acrylamide] | – | –
8 | > 50% | – | – | Fc1cccc(-c2cccc3cnc(Nc4ccc(N5CCNCC5)cc4)nc23)c1 [Example C027, 8-(3-fluorophenyl)-N-(4-(piperazin-1-yl)phenyl)quinazolin-2-amine] | – | –
9 | < 50% | – | – | C=CC(=O)Nc1cccc(-c2cccc3cnc(Nc4ccc(N5CCN(C(C)=O)CC5)nc4)nc23)c1 [Example C036, N-(3-(2-((6-(4-acetylpiperazin-1-yl)pyridin-3-yl)amino)quinazolin-8-yl)phenyl)acrylamide] | – | –

Second part, the molecule before the results:

Row | SMILES | inhibition at 0.041 µM (FGFR1) | inhibition at 0.041 µM (BTK) | inhibition at 0.041 µM (JAK2) | inhibition at 0.0137 µM (EGFR (ErbB1) T790M L858R) | inhibition at 1 µM (EGFR (ErbB1) T790M L858R; read-out: % inhibition EGFR L858R/T790M (Compound at 1 μM))
10 | Fc1ccc(OCCN2CCOCC2)cc1-c1cccc2cnc(Nc3ccc(N4CCOCC4)cc3)nc12 [Example C023, 8-(2-fluoro-5-(2-morpholinoethoxy)phenyl)-N-(4-morpholinophenyl)quinazolin-2-amine] | < 50% | < 50% | < 50% | – | –
11 | C=CC(=O)Nc1cncc(-c2cccc3cnc(Nc4ccc(N5CCN(C)CC5)cc4)nc23)c1 [Example C040, N-(5-(2-((4-(4-methylpiperazin-1-yl)phenyl)amino)quinazolin-8-yl)pyridin-3-yl)acrylamide] | – | > 50% | < 50% | > 50% | –
12 | Clc1cccc(-c2cccc3cnc(Nc4ccc(N5CCOCC5)cc4)nc23)c1 [Example C008, 8-(3-chlorophenyl)-N-(4-morpholinophenyl)quinazolin-2-amine] | < 50% | < 50% | – | – | –
13 | c1ccc(-c2cccc3cnc(Nc4ccc(N5CCOCC5)cc4)nc23)cc1 [Example C004, N-(4-morpholinophenyl)-8-phenylquinazolin-2-amine] | – | < 50% | > 50% | – | –
14 | C=CC(=O)Nc1cccc(-c2cccc3cnc(Nc4ccc(N5CCN(C(C)=O)CC5)cc4)nc23)c1 [Example C032, N-(3-(2-((4-(4-acetylpiperazin-1-yl)phenyl)amino)quinazolin-8-yl)phenyl)acrylamide] | – | > 50% | > 50% | < 50% | > 50%
15 | C=CC(=O)Nc1cccc(-c2nccc3c(N)nc(Nc4ccc(N5CCOCC5)cc4)nc23)c1 [Example C005, N-(3-(4-amino-2-((4-morpholinophenyl)amino)pyrido[3,4-d]pyrimidin-8-yl)phenyl)acrylamide] | – | > 50% | < 50% | – | –
16 | C=CC(=O)Nc1cccc(-c2cccc3cnc(Nc4ccc(N5CCN(CCO)CC5)cc4)nc23)c1 [Example C059, N-(3-(2-((4-(4-(2-hydroxyethyl)piperazin-1-yl)phenyl)amino)quinazolin-8-yl)phenyl)acrylamide] | > 50% | – | – | > 50% | –
17 | C=CC(=O)Nc1cccc(-c2cccc3cnc(Nc4ccc(N5CCN(C)CC5)cc4)nc23)c1 [Example C021, N-(3-(2-((4-(4-methylpiperazin-1-yl)phenyl)amino)quinazolin-8-yl)phenyl)acrylamide] | – | – | > 50% | > 50% | –
